Test system: metastatic melanoma
Assay: Clinical course of patient ZH311 after NY-ESO-1 vaccination and Ipilimumab
Type: in vivo
Description: A patient ZH311 was diagnosed in 2001 with metastatic melanoma. The tumor expressed NY-ESO-1 and was serum-positive for NY-ESO-1.
Survival time after treatment with Ipilimumab was 3 years.

With “Ipilimumab: anti-CTLA4 antagonistic antibody” the “survival time after treatment with Ipilimumab” value (patient ZH311) was 3 years, the course of disease (patient ZH311, Ipilimumab starting in 2007 after NY-ESO-1 vaccination) was “stabilized course of disease” and the overall survival time (patient ZH311, since diagnosis 2001, NY-ESO-1 vaccination then Ipilimumab, peer group median 10 months) was 10 years.

Reference: patent US20180353603A1, “Combination therapy including tumor associated antigen binding antibodies” (CT Atlantic Ltd., priority 2011, published 2018)
